Measured values as given in patent publication US20240238232A1, “COMPOSITIONS AND METHODS FOR THE REDUCTION OR TREATMENT OF INSULIN RESISTANCE AND METABOLIC CONDITIONS” (AXCELLA HEALTH INC., priority 2018, published 2024).

System: Human CCL2 (MCP-1)
Assay: MCP1/CCL2 secretion in primary human hepatocytes (FFA + TNFα, ELISA after 24 h)
Type: cell-based
Settings: for MCP1 expression relative to Control, Mean: baseline subtracted; for MCP1/CCL2 secretion: primary human hepatocytes from two healthy donors, FFA + TNFα, 24 h
Method: Hepatocyte lipotoxicity appears to be a central driver of hepatic cellular injury via oxidative stress and endoplasmic reticulum (ER) stress. The ability of amino acids to influence steatosis (lipid accumulation) and inflammation in hepatocytes was assessed using human primary hepatocytes (Lonza, TRL).
Primary hepatocytes lot nos. from two healthy human donors were seeded on day 0 at density of 6e04 cells in 96 well optical microplates (Thermofisher) in hepatocyte plating media (William's E medium (Gibco) supplemented with 10% heat-inactivated FBS (Atlanta Bio), 2 mM Glutamax (Gibco), and 0.2% Primocin (InVivoGen) and incubated for 6 hours at 37° C., 5% CO2. After 6 hours, cells were washed twice and incubated overnight at 37° C., 5% CO2 with Hepatocytes defined medium (Corning) supplemented with 2 mM Glutamax (Gibco), and 1×Penicillin/Streptomycin. On day 1, cells were washed twice and incubated for 24 h in the hepatocyte culture media in the same conditions described above.
On day 2, cells were washed twice with DPBS 1 X (Gibco) and maintained in amino acid-free WEM (US Biologicals) containing a defined custom amino acid concentration based on the mean physiological concentrations in blood. The values are published in the Human Metabolome Database (Wishart D S, Tzur D, Knox C, et al., HMDB: the Human Metabolome Database. Nucleic Acids Res. 2007 January; 35 (Database issue): D521-6. 17202168; which is hereby incorporated by reference in its entirety). This custom media is supplemented with 11 mM Glucose, 0.272 mM Sodium Pyruvate, and a dose curve of defined amino acid compositions (i.e., vehicle, LIVRQ+N-acetylcysteine, LIVRQ, RQ+N-acetylcysteine, N-acetylcysteine alone, LIV, or individually with L-Leucine, L-Isoleucine, L-Valine, L-Arginine, L-Glutamine, and L-Cysteine) at various ranges of concentrations. Cells were maintained in this defined media for 24 hours at 37° C., 5% CO2.
Co-treatment with free fatty acids and different amino acids combination After pre-treatment, cells were exposed to free fatty acids (FFA) at 250 uM with a ratio of 2:1 (Oleate: Palmitate) supplemented with TNF-α (Thermofisher) at 1 ng/ml or vehicle. Cells were incubated with the FFAs mixture and the different amino acids combinations for 24 hours at 37° C., 5% CO2. After 24 hours incubation, media was removed for cytokine analysis and replaced by fresh media containing the same stimulus conditions and amino acid concentrations. Cells were incubated for an additional 48 hours for a total of 72 hours of FFA and TNFα stimulation.
Human CCL2 (MCP-1) was measured by ELISA (Human […] DuoSet ELISA, R&D Systems) at ⅕ or 1/10 dilution in 1 X Reagent Diluent (Reagent Ancillary Kit 2, R&D Systems). Data were normalized to the specific per well cell density determined by nuclei count stained by Hoechst 3342 (Life technologies) in the fluorescence microscopy described below.
MCP1 CCL2 Secretion Tables 56-59 show the baseline subtracted secretion of MCP1/CCL2 in primary human hepatocytes cells from two healthy donors (donor 1 for Tables 56 and 57, and donor 2 for Tables 58 and 59).

SMILES: NC(=O)CC[C@H](N)C(=O)O [glutamine, L-Glutamine]
- MCP1 expression relative to Control, Mean (Donor 1, Conc. 749 μM): 0
- MCP1 expression relative to Control, Mean (Donor 1, Conc. 3747 μM): −0.8981
- MCP1 expression relative to Control, Mean (Donor 1, Conc. 11242 μM): −9.001
- MCP1 expression relative to Control, Mean (Donor 1, Conc. 22484 μM): −21.8392
- MCP1 expression relative to Control, Mean (Donor 2, Conc. 749 μM): 2.84E−14
- MCP1 expression relative to Control, Mean (Donor 2, Conc. 3747 μM): −45.0574
- MCP1 expression relative to Control, Mean (Donor 2, Conc. 11242 μM): −90.6558
- MCP1 expression relative to Control, Mean (Donor 2, Conc. 22484 μM): −138.873
- MCP1/CCL2 secretion: significantly decrease

SMILES: CC(=O)N[C@@H](CS)C(=O)O [N-acetyl cysteine, N-acetylcysteine]
- MCP1 expression relative to Control, Mean (Donor 1, Conc. 1000 μM): −0.7629
- MCP1 expression relative to Control, Mean (Donor 1, Conc. 2500 μM): −2.498
- MCP1 expression relative to Control, Mean (Donor 1, Conc. 5000 μM): −10.8919
- MCP1 expression relative to Control, Mean (Donor 1, Conc. 10000 μM): −17.6065
- MCP1 expression relative to Control, Mean (Donor 1, Conc. (X) 5): −0.7629
- MCP1 expression relative to Control, Mean (Donor 1, Conc. (X) 10): −2.498
- MCP1 expression relative to Control, Mean (Donor 1, Conc. (X) 20): −10.8919
- MCP1 expression relative to Control, Mean (Donor 1, Conc. (X) 40): −17.6065
- MCP1 expression relative to Control, Mean (Donor 2, Conc. 1000 μM): 1.602
- MCP1 expression relative to Control, Mean (Donor 2, Conc. 2500 μM): −4.0591
- MCP1 expression relative to Control, Mean (Donor 2, Conc. 5000 μM): −10.5725
- MCP1 expression relative to Control, Mean (Donor 2, Conc. 10000 μM): −28.4419
- MCP1 expression relative to Control, Mean (Donor 2, Conc. (X) 1000): 1.602
- MCP1 expression relative to Control, Mean (Donor 2, Conc. (X) 2500): −4.0591
- MCP1 expression relative to Control, Mean (Donor 2, Conc. (X) 5000): −10.5725
- MCP1 expression relative to Control, Mean (Donor 2, Conc. (X) 10000): −28.4419
- MCP1/CCL2 secretion: significantly decrease

SMILES: CC(C)C[C@H](N)C(=O)O [Leucine, L-Leucine]
- MCP1 expression relative to Control, Mean (Donor 1, Conc. 153 μM): 5.92E−16
- MCP1 expression relative to Control, Mean (Donor 1, Conc. 3054 μM): 3.34
- MCP1 expression relative to Control, Mean (Donor 1, Conc. 7635 μM): 1.896
- MCP1 expression relative to Control, Mean (Donor 1, Conc. 15270 μM): −1.368
- MCP1 expression relative to Control, Mean (Donor 2, Conc. 153 μM): −4.7E−15
- MCP1 expression relative to Control, Mean (Donor 2, Conc. 3054 μM): 16.11
- MCP1 expression relative to Control, Mean (Donor 2, Conc. 7635 μM): −2.988
- MCP1 expression relative to Control, Mean (Donor 2, Conc. 15270 μM): −26.6436
- MCP1/CCL2 secretion: did not have an effect

SMILES: N=C(N)NCCC[C@H](N)C(=O)O [arginine, L-Arginine]
- MCP1 expression relative to Control, Mean (Donor 1, Conc. 109 μM): 2.37E−15
- MCP1 expression relative to Control, Mean (Donor 1, Conc. 1088 μM): 5.114
- MCP1 expression relative to Control, Mean (Donor 1, Conc. 2720 μM): 6.527
- MCP1 expression relative to Control, Mean (Donor 1, Conc. 5440 μM): 10.9386
- MCP1 expression relative to Control, Mean (Donor 2, Conc. 109 μM): −4.7E−15
- MCP1 expression relative to Control, Mean (Donor 2, Conc. 1088 μM): 24.95
- MCP1 expression relative to Control, Mean (Donor 2, Conc. 2720 μM): 24.06
- MCP1 expression relative to Control, Mean (Donor 2, Conc. 5440 μM): 8.494
- MCP1/CCL2 secretion: increased

SMILES: CC(C)[C@H](N)C(=O)O [Valine, L-Valine]
- MCP1 expression relative to Control, Mean (Donor 1, Conc. 234 μM): −2.4E−15
- MCP1 expression relative to Control, Mean (Donor 1, Conc. 4684 μM): 23.6867
- MCP1 expression relative to Control, Mean (Donor 1, Conc. 11710 μM): 77.73
- MCP1 expression relative to Control, Mean (Donor 1, Conc. 23420 μM): 14.17
- MCP1 expression relative to Control, Mean (Donor 2, Conc. 234 μM): −1.4E−14
- MCP1 expression relative to Control, Mean (Donor 2, Conc. 4684 μM): 10.79
- MCP1 expression relative to Control, Mean (Donor 2, Conc. 11710 μM): 38.25
- MCP1 expression relative to Control, Mean (Donor 2, Conc. 23420 μM): −30.7921
- MCP1/CCL2 secretion: did not have an effect

SMILES: CC[C@H](C)[C@H](N)C(=O)O [Isoleucine, L-Isoleucine]
- MCP1 expression relative to Control, Mean (Donor 1, Conc. 66 μM): −1.2E−15
- MCP1 expression relative to Control, Mean (Donor 1, Conc. 1328 μM): −0.3073
- MCP1 expression relative to Control, Mean (Donor 1, Conc. 3320 μM): −2.417
- MCP1 expression relative to Control, Mean (Donor 1, Conc. 6639 μM): −0.205
- MCP1 expression relative to Control, Mean (Donor 2, Conc. 66 μM): 0
- MCP1 expression relative to Control, Mean (Donor 2, Conc. 1328 μM): 26.62
- MCP1 expression relative to Control, Mean (Donor 2, Conc. 3320 μM): −5.645
- MCP1 expression relative to Control, Mean (Donor 2, Conc. 6639 μM): 18.62
- MCP1/CCL2 secretion: did not have an effect
